The numbers were not newly measured in patent US10806826B2, “Bone graft substitute containing a temporary contrast agent and a method of generating such and a method of use thereof” (BACTERIN INTERNATIONAL, INC., priority 2013, dated 2020), which cites them from elsewhere.

The conditions of data set [1]: intravascular.
The conditions of data set [2]: oral, dosage 2-12 mL/kg.
For data set [3] the following is noted: intravenous.

SMILES strings stand for the structures. Like-named read-outs stand apart in the source and are kept apart here.

`FC(F)(F)C(F)(F)C(F)(F)C(F)(F)C(F)(F)C(F)(F)C(F)(F)C(F)(F)Br` [Perfluorooctyl bromide, perfluorooctyl bromide]: the “Clearance/Half-life (t1/2)” value in data set [1] (dosage 1.2 g/kg) was 9.4 h; in data set [1] (dosage 1.8 g/kg), “t1/2 = 6.1 hours”. For the same compound, the “Clearance: excreted within 24 hours” value in data set [2] is listed as above 95% excreted. For `FC1(F)C(F)(F)C(F)(F)C2(F)C(F)(F)C(F)(F)C(F)(F)C(F)(F)C2(F)C1(F)F` (stereo not shown) [Perfluorodecalin], the “Clearance/Half-life (t1/2)” value in data set [3] was 140 h.

Take `FC(F)(F)C(F)(F)C(F)(F)N(C(F)(F)C(F)(F)C(F)(F)F)C(F)(F)C(F)(F)C(F)(F)F` [Perfluorotripropylamine]: the “Clearance/Half-life (t1/2)” value in data set [3] is 1510 h. As to `CC(=O)N(CC(O)CO)c1c(I)c(C(=O)NCC(O)CO)c(I)c(C(=O)NCC(O)CO)c1I` (stereo not shown) [Iohexol], the “Clearance: excreted within 24 hours” value in data set [1] (dosage 500-1500 mgl/kg) is around 90% excreted. For the same compound, the “Clearance/Half-life (t1/2)” value in data set [3] (dosage varies by imaging needs) was “t1/2 = 30-60 minutes”.
